The values below are quoted from earlier work in patent US20210307362A1, “Supplement for animal feed for sucking pigs” (Proviron Holding N.V., priority 2018, published 2021).

Turning to `CCCC(=O)OCC(COC(=O)CCC)OC(=O)CCC` [Glycerol tri butyrate], the solubility in water entry is given as “insoluble in water”.
